Data reported in PubChem BioAssay (NCI).
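Where inhibition never reached the appropriate level, the endpoint shown equals the highest concentration tested. Otherwise, values were interpolated linearly from a five-concentration, 48-hour dose response in 96-well plates. TGI: total growth inhibition.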

Experiments:
Assay in all cases: DTP human tumour cell line panel, 48 h
[1] = tested on: 786-0 renal
[2] = tested on: A549 NSCLC
[3] = tested on: ACHN renal
[4] = tested on: BT-549 breast
[5] = tested on: CAKI-1 renal
[6] = tested on: CCRF-CEM leukemia
[7] = tested on: COLO 205 colon
[8] = tested on: EKVX NSCLC
[9] = tested on: HCC-2998 colon
[10] = tested on: HCT-116 colon
[11] = tested on: HCT-15 colon
[12] = tested on: HL-60(TB) leukemia
[13] = tested on: HOP-92 NSCLC
[14] = tested on: HS 578T breast
[15] = tested on: HT29 colon
[16] = tested on: IGROV1 ovarian
[17] = tested on: K-562 leukemia
[18] = tested on: KM12 colon
[19] = tested on: LOX IMVI melanoma
[20] = tested on: M14 melanoma
[21] = tested on: MALME-3M melanoma
[22] = tested on: MCF7 breast
[23] = tested on: MDA-MB-231 breast
[24] = tested on: MDA-N
[25] = tested on: MOLT-4 leukemia
[26] = tested on: NCI-H226 lung
[27] = tested on: NCI-H23 lung
[28] = tested on: NCI-H460 lung
[29] = tested on: NCI-H522 lung
[30] = tested on: NCI/ADR-RES ovarian
[31] = tested on: OVCAR-3 ovarian
[32] = tested on: OVCAR-4 ovarian
[33] = tested on: OVCAR-5 ovarian
[34] = tested on: OVCAR-8 ovarian
[35] = tested on: PC-3 prostate
[36] = tested on: RPMI-8226 leukemia
[37] = tested on: RXF 393 renal
[38] = tested on: SF-268 CNS
[39] = tested on: SF-295 CNS
[40] = tested on: SF-539 CNS
[41] = tested on: SK-MEL-2 melanoma
[42] = tested on: SK-MEL-28 melanoma
[43] = tested on: SK-MEL-5 melanoma
[44] = tested on: SK-OV-3 ovarian
[45] = tested on: SN12C renal
[46] = tested on: SNB-19 CNS
[47] = tested on: SNB-75 CNS
[48] = tested on: SR leukemia
[49] = tested on: SW-620 colon
[50] = tested on: T-47D breast
[51] = tested on: TK-10 renal
[52] = tested on: U251 CNS
[53] = tested on: UACC-257 melanoma
[54] = tested on: UACC-62 melanoma
[55] = tested on: UO-31 renal
[56] = tested on: A498 renal
[57] = tested on: DU-145 prostate
[58] = tested on: HOP-62 NSCLC
[59] = tested on: MDA-MB-435

Compound: CC(=O)O[C@H]1C(=O)[C@@]2(C)[C@H]([C@H](OC(=O)C3CCCCC3)[C@]3(O)C[C@H](OC(=O)[C@H](O)[C@@H](NC(=O)OC(C)(C)C)c4ccccc4)C(C)=C1C3(C)C)[C@]1(OC(C)=O)CO[C@@H]1C[C@@H]2O
- TGI [1]: > 7.61 µM
- TGI [2]: > 12.5 µM
- TGI [3]: > 12.5 µM
- TGI [4]: 0.46 µM
- TGI [5]: > 12.5 µM
- TGI [6]: > 8.82 µM
- TGI [7]: 0.144 µM
- TGI [8]: > 12.5 µM
- TGI [9]: 0.248 µM
- TGI [10]: > 4.97 µM
- TGI [11]: > 12.5 µM
- TGI [12]: 0.00365 µM
- TGI [13]: 0.575 µM
- TGI [14]: 0.741 µM
- TGI [15]: > 6.33 µM
- TGI [16]: > 12.5 µM
- TGI [17]: > 12.5 µM
- TGI [18]: > 12.5 µM
- TGI [19]: > 11.9 µM
- TGI [20]: 0.117 µM
- TGI [21]: 5.07 µM
- TGI [22]: 0.0879 µM
- TGI [23]: > 6.31 µM
- TGI [24]: 0.0173 µM
- TGI [25]: 0.337 µM
- TGI [26]: > 12.5 µM
- TGI [27]: > 9.76 µM
- TGI [28]: > 5.2 µM
- TGI [29]: 0.22 µM
- TGI [30]: > 5.94 µM
- TGI [31]: 0.019 µM
- TGI [32]: > 12.5 µM
- TGI [33]: 0.0701 µM
- TGI [34]: > 12.5 µM
- TGI [35]: > 12.5 µM
- TGI [36]: 0.432 µM
- TGI [37]: 2.15 µM
- TGI [38]: > 12.5 µM
- TGI [39]: 0.165 µM
- TGI [40]: 0.0571 µM
- TGI [41]: 5.15 µM
- TGI [42]: > 9.82 µM
- TGI [43]: > 3.99 µM
- TGI [44]: > 12.5 µM
- TGI [45]: > 11.5 µM
- TGI [46]: > 12.5 µM
- TGI [47]: > 12.5 µM
- TGI [48]: > 12.5 µM
- TGI [49]: > 12.5 µM
- TGI [50]: > 12.5 µM
- TGI [51]: > 10.1 µM
- TGI [52]: > 12.5 µM
- TGI [53]: > 12.5 µM
- TGI [54]: > 2.47 µM
- TGI [55]: > 12.5 µM

Compound: CS(=O)(=O)c1ccc(NNc2cc(=O)[nH]c(=O)[nH]2)cc1
- TGI [1]: > 100 µM
- TGI [56]: > 100 µM
- TGI [2]: > 100 µM
- TGI [3]: > 100 µM
- TGI [4]: > 100 µM
- TGI [6]: > 100 µM
- TGI [7]: > 100 µM
- TGI [57]: > 100 µM
- TGI [9]: > 100 µM
- TGI [10]: > 100 µM
- TGI [11]: > 100 µM
- TGI [12]: > 100 µM
- TGI [58]: > 100 µM
- TGI [13]: > 100 µM
- TGI [14]: > 100 µM
- TGI [15]: > 100 µM
- TGI [16]: > 100 µM
- TGI [17]: > 100 µM
- TGI [18]: > 100 µM
- TGI [19]: > 100 µM
- TGI [20]: > 100 µM
- TGI [21]: > 100 µM
- TGI [23]: > 100 µM
- TGI [24]: > 100 µM
- TGI [25]: > 100 µM
- TGI [26]: > 100 µM
- TGI [27]: > 100 µM
- TGI [28]: > 100 µM
- TGI [29]: 40.2 µM
- TGI [30]: > 100 µM
- TGI [31]: > 100 µM
- TGI [32]: > 100 µM
- TGI [33]: > 100 µM
- TGI [35]: > 100 µM
- TGI [36]: > 100 µM
- TGI [37]: > 100 µM
- TGI [38]: > 100 µM
- TGI [39]: > 100 µM
- TGI [40]: > 100 µM
- TGI [41]: > 100 µM
- TGI [42]: > 100 µM
- TGI [43]: > 100 µM
- TGI [44]: > 100 µM
- TGI [45]: > 100 µM
- TGI [46]: > 100 µM
- TGI [47]: > 100 µM
- TGI [48]: > 100 µM
- TGI [49]: > 100 µM
- TGI [50]: > 100 µM
- TGI [51]: 9.34 µM
- TGI [52]: > 100 µM
- TGI [53]: > 100 µM
- TGI [54]: > 100 µM
- TGI [55]: > 100 µM

Compound: C=C(C)C12OC3(c4ccccc4)OC1C1C4OC4(CO)C(O)C4(O)C(=O)C(C)=CC4C1(O3)C(C)C2OC(=O)/C=C/C=C/c1ccccc1 (stereo not given)
- TGI [1]: 0.699 µM
- TGI [56]: 0.183 µM
- TGI [2]: 2.39 µM
- TGI [3]: 0.557 µM
- TGI [4]: 0.97 µM
- TGI [5]: 1.52 µM
- TGI [6]: 1.5 µM
- TGI [7]: 0.0416 µM
- TGI [57]: 1.47 µM
- TGI [8]: 1.13 µM
- TGI [9]: 0.246 µM
- TGI [10]: 0.887 µM
- TGI [11]: 1.98 µM
- TGI [12]: 0.107 µM
- TGI [58]: 1.65 µM
- TGI [13]: 0.836 µM
- TGI [15]: 0.22 µM
- TGI [16]: 2.4 µM
- TGI [17]: 2.35 µM
- TGI [18]: 0.862 µM
- TGI [19]: 0.411 µM
- TGI [20]: 0.409 µM
- TGI [21]: 1.24 µM
- TGI [22]: 0.911 µM
- TGI [23]: 0.264 µM
- TGI [59]: 0.742 µM
- TGI [24]: 0.817 µM
- TGI [25]: 2.34 µM
- TGI [26]: 1.06 µM
- TGI [27]: 1.4 µM
- TGI [28]: 3.04 µM
- TGI [29]: 1.1 µM
- TGI [30]: 1.38 µM
- TGI [31]: 0.316 µM
- TGI [32]: 0.697 µM
- TGI [33]: 0.597 µM
- TGI [34]: 1.15 µM
- TGI [35]: 0.62 µM
- TGI [36]: 0.519 µM
- TGI [37]: 1.07 µM
- TGI [38]: 1.25 µM
- TGI [39]: 1.09 µM
- TGI [40]: 1.52 µM
- TGI [41]: 1.89 µM
- TGI [42]: 1.55 µM
- TGI [43]: 0.989 µM
- TGI [44]: 4.73 µM
- TGI [45]: 0.37 µM
- TGI [46]: 5 µM
- TGI [47]: 1.15 µM
- TGI [48]: 0.385 µM
- TGI [50]: 4.84 µM
- TGI [52]: 0.894 µM
- TGI [53]: 1.94 µM
- TGI [54]: 1.29 µM
- TGI [55]: 0.576 µM
